The conditions of series [1]: cited from earlier work; for pKa3 / pKa2 / pKa: approximate; for pKa: pKa of the acid.
The nature of series [2]: Particle size by laser light scattering (Malvern). It is filed as physicochemical. Particulars: raw material of Table 7. The protocol: Samples have been dried for minimum 12 hours at 40° C. prior to the measurements.

Molecules are shown by their SMILES. Where two headings read alike, the source gives them in different places.

For the compound `N[C@@H](Cc1c[nH]cn1)C(=O)O` [Histidine], in series [1] (10 g/L H2O), the pH result is “pH≈7.7”. In series [1], the pKa3 entry is “pKa3: 9.0”. Turning to `COc1ccnc(C[S+]([O-])c2nc3ccc(OC(F)F)cc3[nH]2)c1OC` (stereo not drawn) [Pantoprazole sodium sesquihydrate], the “D(v; 0.5)” value in series [2] is recorded as 7 μm. `NCCCC[C@H](N)C(=O)O` [Lysine]: the pKa2 result in series [1] is reported as “pKa2: 8.9”. As to `O=C([O-])[O-].[Na+].[Na+]` [DiSodium carbonate], the pKa in series [1] was 10.3.

For `N=C(N)NCCC[C@H](N)C(=O)O` [Arginine], the pH result in series [1] (100 g/L H2O) was “pH≈11.4”. For the same compound, in series [1], the pKa2 result is recorded as “pKa2: 9.1” and the pKa3 entry is given as “pKa3: 13.2”. Regarding `O=C([O-])[O-].[Ca+2]` [Calcium carbonate], in series [1], the pKa was 10.3.

The values are drawn from patent US20070020334A1, “Benzimidazole formulation” (priority 2005, published 2007).
